Reference: PMC11751439, “Targeting SRSF1 improves cancer immunotherapy by dually acting on CD8^+T and tumor cells” (Signal Transduction and Targeted Therapy, 2025)

How the values were obtained:
[1] = target: T1, SRSF1 (recombinant SRSF1; serine arginine-rich splicing factor 1) (Homo sapiens, UniProt Q07955); test: SPR; assay type: binding; settings: purified SRSF1 variant; unit inferred, M taken from the wild-type value
T1 construct: recombinant purified SRSF1; RRM1 domain targeted in screening
T1 sequence (Q07955 2-248): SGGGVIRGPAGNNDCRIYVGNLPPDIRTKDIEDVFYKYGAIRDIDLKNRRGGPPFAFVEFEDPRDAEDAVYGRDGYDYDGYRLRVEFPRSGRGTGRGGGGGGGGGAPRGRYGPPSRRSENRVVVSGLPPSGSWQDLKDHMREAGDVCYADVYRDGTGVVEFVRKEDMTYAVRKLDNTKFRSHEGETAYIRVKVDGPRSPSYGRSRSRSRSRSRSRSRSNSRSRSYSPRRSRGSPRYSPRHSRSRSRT

[2] = target: T1, SRSF1 (recombinant SRSF1; serine arginine-rich splicing factor 1); test: SPR (Biacore T100); assay type: binding

O=C(/C=C/c1ccc(O)c(O)c1)c1ccc(O)c(O)c1O [TN2008]
Kd [1]: 37.2 µM
Kd [2]: 5.13 µM
